These are literature values, as cited in article PMC3865603 (Cancer chemotherapy and pharmacology, 2011).

Structures are written as SMILES.

One data set relates to patients. The conditions noted are these: cited from earlier work.
The conditions of data set [1]: cited from earlier work.
Another data set relates to tubulin in PBMCs. The note with it: ixabepilone RP2D 40 mg/m^2, 1 h after infusion, n = 27; cited from earlier work.

On to `C/C(=C\c1csc(C)n1)[C@@H]1C[C@@H]2O[C@]2(C)CCC[C@H](C)[C@H](O)[C@@H](C)C(=O)C(C)(C)[C@@H](O)CC(=O)O1` [patupilone], for which, in the data set with patients, the DLTs result is “diarrhea, peripheral neuropathy, and fatigue”.

`C/C1=C/C[C@@H](/C(C)=C/c2csc(C)n2)OC(=O)C[C@H](O)C(C)(C)C(=O)[C@H](C)[C@@H](O)[C@@H](C)CCC1` [KOS-862, Desoxyepothilone B]: in the data set on patients, the “neurotoxicity in phase II trials” value was “significant neurotoxicity”. The “in vivo activity relative to other epothilones” value in data set [1] is “greater activity compared with ixabepilone and patupilone”. On to `C=CC[C@H]1C(=O)C(C)(C)[C@@H](O)CC(=O)O[C@H](c2ccc3sc(C)nc3c2)C[C@@H]2O[C@]2(C)CCC[C@H](C)[C@@H]1O` [sagopilone], for which the DLTs result in the data set with patients is “peripheral neuropathy, infection, hyponatremia, diarrhea, and central ataxia”. As to `C/C(=C\c1csc(C)n1)[C@@H]1C[C@@H]2O[C@]2(C)CCC[C@H](C)[C@H](O)[C@@H](C)C(=O)C(C)(C)[C@@H](O)CC(=O)N1` [Ixabepilone, ixabepilone], the “mean MBF” value in the data set on tubulin in PBMCs is on record as 63%. The DLTs entry with patients was “neutropenia, neuropathy, and abdominal pain/nausea”.
